US20140051762A1, “POLYCATIONIC COMPOUNDS AND USES THEREOF” (priority 2004, published 2014)
Several values for one entry are separate records, joined by “and”; a condition that tells them apart may be missing. Equal entries are not always repeated.

Experiments:
Factor Xa = assay: anti-heparin assay, % Factor Xa inhibition at single concentration (chromogenic substrate S-2765); assay type: biochemical; details: Single concentration (10 ug/ml)
Experimental: The following example illustrates the heparin antagonistic effects of polycationic compounds of the present invention. To determine the anti-heparin activity of the polycationic compounds an assay measuring the percent inhibition using a fixed concentration of polycationic compound or concentrations of polycationic compounds causing lysis of 50% of human red blood cells were conducted.
10 IU of anti-thrombin was dissolved in 10 ml of buffer, resulting in a 1 IU/ml stock solution (250×) of the anti-thrombin. The 1 IU/ml (250×) stock solution of anti-thrombin and a 336 mM stock solution of NaCl were diluted into a total volume of 50 μl buffer so that the final anti-thrombin concentration was 0.004 IU/sample well and the NaCl was 150 mM/sample well. 1 μl of the compound to be tested, final concentration 10 μg/ml (corresponding to 0.5 logarithmic antagonist dilution) is added to the sample well. The samples are mixed and allowed to incubate at room temperature for 20 minutes. 50 μl of factor Xa dissolved in buffer is added to the sample well to a final concentration of 0.14 knat/well (2 μl of the 7.1 kna/1 ml stock solution to a final sample well buffer volume of 100 μl). The samples were mixed and further incubated at room temperature for 10 minutes. 10 μl of a 4 mM stock solution of the substrate S-2765 was added to each sample well for a final concentration of 0.4 mM in each sample well. The samples were mixed and hydrolyses of the chromogenic substrate Z-D-Arg-Gly-Arg-pNA (S-2765), thus liberating the chromophoric group pNA (p-nitroaniline), was monitored at 405 nm. The samples were mixed every 30 seconds to maintain a uniform mixture. ThermoLabsystems Multiskan Spectrum spectrophotometer was used to measure the absorbance spectrums. The increase in absorbance was proportional to the enzyme (factor Xa) activity. The % inhibition of factor Xa was determined using a standard curve.

heparin = assay: effect on coagulation time and heparin efficacy; details: Compound 26 0 mg/L
Experimental: The following example illustrates the effect of a polycationic compound of the present invention on coagulation time. The anti-heparin assay as described herein was used. The assay contained either 1 mg/L, 2 mg/L or 4 mg/I of heparin and increasing amounts of Compound 26 was added.

| Compound | % FactorXa Inhibition (Factor Xa) | other results |
| --- | --- | --- |
| CC(C)(C)c1cc(NC(=O)c2cccc(C(=O)Nc3cc(C(C)(C)C)cc(NC(=O)[C@H](N)CCCCN)c3SCCN)c2)c(SCCN)c(NC(=O)[C@H](N)CCCCN)c1 [Compound 4] | 0.9517% |  |
| CC(C)(C)c1cc(NC(=O)CCCN)c(SCCN)c(NC(=O)c2cccc(C(=O)Nc3cc(C(C)(C)C)cc(NC(=O)CCCN)c3SCCN)c2)c1 [Compound 6] | 2.583% |  |
| COC(=O)c1cc(NC(=O)c2cc(NC(=O)c3cc(NC(=O)c4cc(NC(=O)c5cc(NC(=O)c6cc(N)ccc6OC)ccc5OCCN)ccc4OC)ccc3OCCN)ccc2OC)ccc1OCCN [Compound 53] | 43.03% |  |
| CC(C)(C)c1cc(NC(=O)c2cccc(C(=O)Nc3cc(C(C)(C)C)cc(NC(=O)[C@H](N)Cc4ccccc4)c3SCCN)c2)c(SCCN)c(NC(=O)[C@H](N)Cc2ccccc2)c1 [Compound 8] | 7.41% |  |
| CC(C)(C)c1cc(N)c(SCCNC2=NCCN2)c(NC(=O)c2cccc(C(=O)Nc3cc(C(C)(C)C)cc(N)c3SCCNC3=NCCN3)c2)c1 [Compound 21] | 1.496% |  |
| CC(C)(C)c1cc(N)c(SCCN)c(NC(=O)c2cc(C(=O)Nc3cc(C(C)(C)C)cc(N)c3SCCN)c(OCCN)cc2OCCN)c1 [Compound 15] | 5.71% |  |
| CC(=O)Nc1cc(C(C)(C)C)cc(NC(=O)c2cc(OCCN)cc(C(=O)Nc3cc(C(C)(C)C)cc(NC(C)=O)c3SCCN)c2)c1SCCN [Compound 24] | 1.835% |  |
| CC(=O)Nc1cc(C(C)(C)C)cc(NC(=O)c2cccc(C(=O)Nc3cc(C(C)(C)C)cc(NC(C)=O)c3SCCN)c2)c1SCCN [Compound 23] | 1.224% |  |
| heparin [reference compound] |  | Coagulation Time (heparin; Heparin 1 mg/L): 50.8 s; Heparin Efficacy (heparin; Heparin 1 mg/L): 1; Coagulation Time (heparin; Heparin 2 mg/L): 110.8 s; Heparin Efficacy (heparin; Heparin 2 mg/L): 1; Coagulation Time (heparin; Heparin 4 mg/L): 214.9 s; Heparin Efficacy (heparin; Heparin 4 mg/L): 1 |
| CC(C)(C)c1cc(N)c(SCCNC(=N)N)c(NC(=O)c2cc(OCCNC(=N)N)cc(C(=O)Nc3cc(C(C)(C)C)cc(N)c3SCCNC(=N)N)c2)c1 [Compound 14] | 40.99% |  |
| COC(=O)c1cc(NC(=O)c2cc(NC(=O)c3cc(NC(=O)c4cc(N)ccc4OC)ccc3OCCN)ccc2OC)ccc1OCCN [Compound 52] | 45.48% |  |
| CC(C)OC(=O)c1cc(NC(=O)c2cc(OCCN)cc(C(=O)Nc3cc(C(=O)OC(C)C)cc(NC(=O)[C@H](N)CCCNC(=N)N)c3SCCN)c2)c(SCCN)c(NC(=O)[C@H](N)CCCNC(=N)N)c1 [Compound 19] | 59.82% |  |
| CC(C)(C)c1cc(N)c(SCCNC(=N)N)c(NC(=O)c2cccc(C(=O)Nc3cc(C(C)(C)C)cc(N)c3SCCNC(=N)N)c2)c1 [Compound 9] | 10.88% and 16.25% |  |
| CC(C)(C)c1cc(N)c(SCCNC(=N)N)c(NC(=O)c2cc(C(=O)Nc3cc(C(C)(C)C)cc(N)c3SCCNC(=N)N)c(OCCNC(=N)N)cc2OCCNC(=N)N)c1 [Compound 16] | 30.39% |  |
| CC(C)(C)c1cc(N)c(SCCN)c(NC(=O)c2cccc(C(=O)Nc3cc(C(C)(C)C)cc(N)c3SCCN)c2)c1 [Compound 3] | 2.855% |  |
| CC(=O)Nc1cc(C(C)(C)C)cc(NC(=O)c2cccc(C(=O)Nc3cc(C(C)(C)C)cc(NC(C)=O)c3SCCNC(=N)N)c2)c1SCCNC(=N)N [Compound 20] | 7.852% |  |
| CC(C)(C)c1cc(N)c(SCCNC(=N)N)c(NC(=O)c2cc(C(=O)Nc3cc(C(C)(C)C)cc(N)c3SCCNC(=N)N)c(OCCN)cc2OCCN)c1 [Compound 17] | 15.02% |  |
| Magainin [reference compound] | 4.419% |  |
| N=C(N)NCCCCC(=O)Nc1cccc(NC(=O)c2cc(C(=O)Nc3cccc(NC(=O)NCCCNC(=N)N)c3SCCN)c(OCCN)cc2OCCN)c1SCCN [Compound 28] | 44.3% |  |
| NCCc1cc(Br)cc(C#Cc2cccc(C#Cc3cc(Br)cc(CCN)c3)c2)c1 [Compound 55] | 46.5% |  |
| CC(C)(C)c1cc(NC(=O)CCCCNC(=N)N)c(SCCNC(=N)N)c(NC(=O)c2cccc(C(=O)Nc3cc(C(C)(C)C)cc(NC(=O)CCCCNC(=N)N)c3SCCNC(=N)N)c2)c1 [Compound 10] | 20.8% |  |
| CC(C)(C)c1cc(NC(=N)N)c(SCCN)c(NC(=O)c2cc(C(=O)Nc3cc(C(C)(C)C)cc(NC(=N)N)c3SCCN)c(OCCN)cc2OCCN)c1 [Compound 18] | 13.26% |  |
| CC(C)(C)c1cc(NC(=O)c2cc(OCCN)cc(C(=O)Nc3cc(C(C)(C)C)cc(NC(=O)[C@H](N)Cc4ccccc4)c3SCCN)c2)c(SCCN)c(NC(=O)[C@H](N)Cc2ccccc2)c1 [Compound 5] | 39.77% |  |
| CC(C)(C)c1cc(NC(=O)CCCCNC(=N)N)c(SCCN)c(NC(=O)c2cccc(C(=O)Nc3cc(C(C)(C)C)cc(NC(=O)CCCCNC(=N)N)c3SCCN)c2)c1 [Compound 12] | 9.381% |  |
| CN(C)C(NCCSc1c(N)cc(C(C)(C)C)cc1NC(=O)c1cccc(C(=O)Nc2cc(C(C)(C)C)cc(N)c2SCCNC(N(C)C)=[N+](C)C)c1)=[N+](C)C [Compound 22] | 1.292% |  |
| CC(C)(C)c1cc(NC(=O)CCCCN)c(SCCN)c(NC(=O)c2cccc(C(=O)Nc3cc(C(C)(C)C)cc(NC(=O)CCCCN)c3SCCN)c2)c1 [Compound 11] | 1.903% |  |
| COC(=O)c1cc(OCCN)ccc1NC(=O)c1cc(OCCC(C)C)ccc1NC(=O)c1cc(OCCN)ccc1C(O)O [Compound 54] | 19.99% |  |
| CC(C)(C)c1cc(NC(=O)c2cccc(C(=O)Nc3cc(C(C)(C)C)cc(NC(=O)c4cc(N)ccc4OCCCCCN)c3SCCN)c2)c(SCCN)c(NC(=O)c2cc(N)ccc2OCCCCCN)c1 [Compound 13] | 36.84% |  |
